Measurements reported in ChEMBL document CHEMBL5500346, “Targeting EGFR degradation by autophagosome degraders” (Eur J Med Chem, 2024).
Calls of active or inactive are those of the source. Unless noted, the rule behind the calls is not given here.

Tests used:
[1] = Toxicity in C57BL/6 mouse assessed as serum AST level at 200 mg/kg, ip measured after 24 hrs (reference value: 234.682 U/L); type: organism-based; details: in vivo
[2] = Toxicity in C57BL/6 mouse assessed as serum TBA level at 200 mg/kg, ip measured after 24 hrs (reference value: 2.674 umol/L); type: organism-based; details: in vivo
[3] = Stability in mouse plasma at 1 mg/ml incubated for 160 mins by HPLC analysis; type: ADME, cell-free; details: read-out: Stability
[4] = target: T1, Microtubule-associated protein 1 light chain 3 beta/Epidermal growth factor receptor (Homo sapiens, UniProt P00533+Q9GZQ8); assay: ATTEC activity at LC3B/EGFR in human HCC827 cells assessed as protein degradation at 1 uM incubated for 18 hrs by global proteomic profiling analysis; type: cell-based
[5] = Toxicity in C57BL/6 mouse assessed as histological change in heart upto 200 mg/kg, ip measured after 24 hrs by H and E staining based analysis; type: organism-based; details: in vivo
[6] = Toxicity in C57BL/6 mouse assessed as serum urea level at 100 mg/kg, ip measured after 24 hrs (reference value: 18.934 mmol/L); type: organism-based; details: in vivo
[7] = system: PC-9; assay: Anti-tumor activity against human PC-9 cells implanted in NOD-SCID mouse at 10 mg/kg, ip administered every other day for 3 weeks relative to control; type: functional; details: PC-9, 504 h, read-out: TGI
[8] = Toxicity in C57BL/6 mouse assessed as serum AST level at 100 mg/kg, ip measured after 24 hrs (reference value: 234.682 U/L); type: organism-based; details: in vivo
[9] = system: PC-9; assay: In vivo ATTEC activity at LC3B/EGFR in human PC-9 cells implanted in NOD-SCID mouse assessed as protein degradation at 10 mg/kg, ip administered every other day for 3 weeks by Western blot analysis; type: functional, organism-based
[10] = Toxicity in C57BL/6 mouse assessed as serum uric acid level at 100 mg/kg, ip measured after 24 hrs (reference value: 78.784 umol/L); type: organism-based; details: in vivo
[11] = system: L02; assay: Antiproliferative activity against human HL7702 cells incubated for 72 hrs by CCK8 assay; type: toxicity, cell-based; details: l02, 72 h
[12] = target: T1, Microtubule-associated protein 1 light chain 3 beta/Epidermal growth factor receptor; assay: ATTEC activity at LC3B/EGFR in human HCC827 cells assessed as protein degradation at 1 uM measured after 12 hrs by Western blot analysis relative to control; type: cell-based
[13] = Toxicity in C57BL/6 mouse assessed as serum ALT level at 100 mg/kg, ip measured after 24 hrs (reference value: 42.554 U/L); type: organism-based; details: in vivo
[14] = Toxicity in C57BL/6 mouse assessed as serum GGT level at 200 mg/kg, ip measured after 24 hrs (reference value: 1.62 U/L); type: organism-based; details: in vivo
[15] = Toxicity in C57BL/6 mouse assessed as histological change in kidney upto 200 mg/kg, ip measured after 24 hrs by H and E staining based analysis; type: organism-based; details: in vivo
[16] = Toxicity in C57BL/6 mouse assessed as serum TBIL level at 200 mg/kg, ip measured after 24 hrs (reference value: 18.958 umol/L); type: organism-based; details: in vivo
[17] = Toxicity in C57BL/6 mouse assessed as ataxia upto 200 mg/kg, ip measured after 24 hrs; type: organism-based; details: in vivo
[18] = Toxicity in C57BL/6 mouse assessed as serum urea level at 200 mg/kg, ip measured after 24 hrs (reference value: 18.934 mmol/L); type: organism-based; details: in vivo
[19] = Toxicity in C57BL/6 mouse assessed as serum TBA level at 100 mg/kg, ip measured after 24 hrs (reference value: 2.674 umol/L); type: organism-based; details: in vivo
[20] = target: T1, Microtubule-associated protein 1 light chain 3 beta/Epidermal growth factor receptor; assay: ATTEC activity at LC3B/EGFR in Gefitinib-resistant human PC-9 cells assessed as protein degradation; type: cell-based
[21] = Toxicity in C57BL/6 mouse assessed as serum ALB level at 200 mg/kg, ip measured after 24 hrs (reference value: 40.01 g/L); type: organism-based; details: in vivo
[22] = Toxicity in C57BL/6 mouse assessed as serum GGT level at 100 mg/kg, ip measured after 24 hrs (reference value: 1.62 U/L); type: organism-based; details: in vivo
[23] = system: PC-9; assay: Anti-tumor activity against human PC-9 cells implanted in NOD-SCID mouse at 20 mg/kg, ip administered every other day for 3 weeks relative to control; type: functional; details: PC-9, 504 h, read-out: TGI
[24] = system: HCC827; assay: Antiproliferative activity against human HCC827 cells incubated for 72 hrs by CCK8 assay; type: functional, cell-based; details: HCC827, 72 h
[25] = target: T1, Microtubule-associated protein 1 light chain 3 beta/Epidermal growth factor receptor; assay: ATTEC activity at LC3B/EGFR in chloroquine-treated human HCC827 cells assessed as protein degradation at 1 uM incubated for 16 hrs by Western blot analysis; type: cell-based
[26] = target: T1, Microtubule-associated protein 1 light chain 3 beta/Epidermal growth factor receptor; assay: ATTEC activity at LC3B/EGFR in CHX-treated human HCC827 cells assessed as protein degradation at 1 uM incubated for 12 hrs by Western blot analysis; type: cell-based
[27] = Toxicity in NOD-SCID mouse bearing human PC-9 cells assessed as body weight loss at 5 to 20 mg/kg, ip administered every other day for 3 weeks; type: organism-based; details: in vivo, 504 h, dose 5-20 mg/kg
[28] = target: T1, Microtubule-associated protein 1 light chain 3 beta/Epidermal growth factor receptor; assay: ATTEC activity at LC3B/EGFR in human NCI-H3255 cells assessed as protein degradation; type: cell-based
[29] = system: NCI-H3255; assay: Inhibition of colony formation in human NCI-H3255 cells incubated for 2 weeks by crystal violet staining based analysis; type: functional, cell-based; details: dose 0.1-10 µM
[30] = Toxicity in C57BL/6 mouse assessed as serum DBIL level at 200 mg/kg, ip measured after 24 hrs (reference value: 7.868 umol/L); type: organism-based; details: in vivo
[31] = target: T1, Microtubule-associated protein 1 light chain 3 beta/Epidermal growth factor receptor; assay: ATTEC activity at LC3B/EGFR in human A549 cells assessed as protein degradation; type: cell-based
[32] = target: T1, Microtubule-associated protein 1 light chain 3 beta/Epidermal growth factor receptor; assay: ATTEC activity at LC3B/EGFR in human HCC827 cells assessed as protein degradation at 1 uM measured after 48 hrs by Western blot analysis; type: cell-based
[33] = Half life in Sprague-Dawley rat at 20 mg/kg, ip; type: ADME, organism-based; details: in vivo
[34] = Toxicity in C57BL/6 mouse assessed as change in hematological indicators upto 200 mg/kg, ip measured after 24 hrs by blood cell analysis; type: organism-based; details: in vivo
[35] = system: HCC827; assay: Inhibition of colony formation in human HCC827 cells incubated for 2 weeks by crystal violet staining based analysis; type: functional, cell-based; details: dose 0.1-10 µM
[36] = system: NCI-H1975; assay: Antiproliferative activity against human NCI-H1975 cells incubated for 72 hrs by CCK8 assay; type: functional, cell-based; details: NCI-H1975, 72 h
[37] = target: T1, Microtubule-associated protein 1 light chain 3 beta/Epidermal growth factor receptor; assay: ATTEC activity at LC3B/EGFR in rapamycin-treated human HCC827 cells assessed as protein degradation by Western blot analysis; type: cell-based
[38] = Toxicity in C57BL/6 mouse assessed as serum DBIL level at 100 mg/kg, ip measured after 24 hrs (reference value: 7.868 umol/L); type: organism-based; details: in vivo
[39] = system: NCI-H3255; assay: Antiproliferative activity against human NCI-H3255 cells incubated for 72 hrs by CCK8 assay; type: functional, cell-based; details: NCI-H3255, 72 h
[40] = target: T1, Microtubule-associated protein 1 light chain 3 beta/Epidermal growth factor receptor; assay: ATTEC activity at LC3B/EGFR in EBSS-treated human HCC827 cells assessed as protein degradation by Western blot analysis; type: cell-based
[41] = system: PC-9; assay: Antiproliferative activity against human PC-9 cells incubated for 72 hrs by CCK8 assay; type: functional, cell-based; details: PC-9, 72 h

remaining at 2.667 h, 1 mg/ml [3]: 90%
Activity [4]: Active
Activity [12]: 68%
Activity [20]: inactive
IC50 [24]: 0.278 µM
Activity [25]: inactive
Activity [26]: inactive
Activity [28]: Active
Activity [31]: inactive
Activity [32]: Active
half-life [33]: 10.5 h
IC50 [36]: > 10 µM
Activity [37]: Active
IC50 [39]: 3 µM
Activity [40]: Active
IC50 [41]: 5.61 µM
SMILES: COc1cc2ncnc(Nc3ccc(F)c(Cl)c3)c2cc1OCCOCCOCCOCCNC(=O)COc1c(Br)cc(/C=C2\C(=O)Nc3ccc(I)cc32)cc1Br
Activity [1]: 159.506 U/L
Activity [2]: 3.062 µmol/L
Activity [5]: Non-Toxic
Activity [6]: 19.63 mmol/L
inhibition in vivo at 10 mg/kg [7]: 51.6%
Activity [8]: 229.632 U/L
Activity [9]: Active
Activity [10]: 44.454 µmol/L
Activity [11]: Non-Toxic
Activity [13]: 65.504 U/L
Activity [14]: 1.712 U/L
Activity [15]: Non-Toxic
Activity [16]: 16.068 µmol/L
Activity [17]: Non-Toxic
Activity [18]: 19.029 mmol/L
Activity [19]: 2.53 µmol/L
Activity [21]: 40.048 g/L
Activity [22]: 1.682 U/L
inhibition in vivo at 20 mg/kg [23]: 63.4%
Activity [27]: Non-Toxic
inhibition [29]: Dose-Dependent Effect
Activity [30]: 6.434 µmol/L
Activity [34]: Non-Toxic
inhibition [35]: Dose-Dependent Effect
Activity [38]: 6.434 µmol/L
